According to US20060003896A1, “Novel diterpenoid compounds imparting stress resistance to plants” (National Institute of Agrobiological Sciences, priority 2002, published 2006):

Experiments:
[1] = system: WIZZ gene; test: RNA gel blotting of WIZZ transcript in tobacco leaf disks; type: cell-based; conditions: 1 nM, 30 minutes after penetrance
Description: The transition in expression of the WIZZ transcript after stimulation with WAF-1 in this invention was ascertained using the following method. Leaf disks stamped out of tobacco leaves were penetrated with 1 nM WAF-1 solution or water and collected at 30 minutes after penetrance to be used for total RNA extraction. Total RNA extraction followed the method described in Seo et al. Plant Cell 1999, 11, 289-299. Isolated total RNA was subjected to RNA gel blotting analysis following the above procedure. A fragment, whose sequence corresponded to bases 877-1211 in the WIZZ cDNA (335 bp) was amplified, and used as a probe. As an internal standard probe, actin cDNA (described in Seo et al. 2000 12, 917-932) was also used. An RNA gel blot membrane containing 20 μg total RNA per lane was analized.

[2] = system: ethylene; test: Release of ethylene from treated tobacco leaf; type: cell-based
Description: Ethylene acts as a signal in the induction of basic PR protein of tobacco plant, so the release of ethylene was measured after externally giving WAF-1 to a tobacco leaf as above to evaluate the effects of synthetic substance on ethylene accumulation.

[3] = system: JA; test: Intrinsic JA level in tobacco leaves after absorption through the petiole; type: cell-based; conditions: 3-, 6-, 12- or 24-hours culture
Description: To evaluate whether the induction of basic pathogenesis-related protein gene (PR-1 and PR-2) and proteinase inhibitor II gene by synthetic substance occurred through JA or SA, 100 nM or 1 μM WAF-1 or water was absorbed into tobacco leaves through the petiole, followed by culture at 24° C., to measure the intrinsic level of JA.

[4] = system: vermin; test: Presenting vermin to rice administered with the substance; type: in vivo; conditions: vermin presented
Description: Therefore, an experiment was conducted by administering this substance to plants and presenting vermin to the administered plant. In this example, rice was used as a target.

[5] = system: SA; test: Intrinsic SA level in tobacco leaves after absorption through the petiole; type: cell-based; conditions: 3-, 6-, 12- or 24-hours culture
[6] = system: petunia plant body; test: Flowering of petunia plant bodies after spraying; type: in vivo
Description: In this example, 1-month-old petunia plant body was used. The compound of this invention was dissolved in dimethyl sulfoxide (DMSO) and diluted with 10 mM Mes-NaOH (pH 5.6) to an adequate concentration (300, 100 and 30 ng/ml). 10 mM Mes-NaOH containing the compound of this invention at the given concentration was sprayed on the petunia plant bodies, followed by culture at 24° C. In a control group, 10 mM Mes-NaOH (pH 5.6) without the compound of this invention was used. After a certain amount of time, observation of the gross flowering features of the plant bodies was performed. The administration of the compound of this invention to plants was then discontinued, only buffer was sprayed, and the flowering was observed.

[7] = system: SIPK; test: SIPK activity measurement (MBP phosphorylation by anti-SIPK immune complex) in treated tobacco leaves; type: cell-based, Nicotiana tabacum cv. Samsun NN
Description: As an active substance, the substance isolated in Example 1 was used as a standard. The isolated substance was dissolved in dimethyl sulfoxide (DMSO) and diluted to adequate concentration (0.3, 1.5 and 3 ng/ml) with 10 mM Mes-NaOH (pH 5.6). If it was used in an assay, the DMSO concentration was kept below 0.1%. […] 10 mM Mes-NaOH (pH 5.6) without active substance of the invention was used as a control group. In a certain amount of time, the leaves were collected and immediately frozen in liquid nitrogen to measure the SIPK activity. The measurement was conducted as follows:
Crude protein of 50 μg and anti-SIPK antibody were reacted and the myelin basic protein (MBP) phosphorylation activity of SIPK in the resultant immune complex was measured.
(§1) Using natural isolated substances, preparations at concentrations of 10 and 100 pM, and 1 and 100 nM were prepared and these natural preparations or water were penetrated into tobacco leaf disks, followed by sampling at 30 minutes after treatment, to measure the MBP phosphorylation activity of WIPK and SIPK as described above.

[8] = system: WIPK; test: WIPK activity measurement (MBP phosphorylation by anti-WIPK immune complex) in treated tobacco leaves; type: cell-based, Nicotiana tabacum cv. Samsun NN
Description: The WIPK induced activity assay was conducted as follows: A filter paper was spread in a glass Petri dish of 3 cm inside diameter, onto which the test solution for assay was added, organic solvent was removed under the flow of nitrogen gas, and 10 mM Mes-NaOH (pH 5.6) of 1 ml was added, on which three leaf disks (diameter 9 mm) stamped out of the tobacco leaves were placed per Petri dish and cultured at 24° C. In two hours, the disks were collected and immediately frozen in liquid nitrogen to be used in WIPK activity measurement that was conducted following the method described in Seo et al. (1999) Plant Cell 11, 289-291. The outline is as follows:
Crude protein of 50 μg and anti-WIPK antibody were reacted and the myelin basic protein phosphorylation activity of WIPK in the resultant immune complex was measured.
(§2) Isolated material was dissolved in dimethyl sulfoxide (DMSO) and diluted with 10 mM Mes-NaOH (pH 5.6) to an adequate concentration. If it was used in an assay, the DMSO concentration was kept below 0.1%. […] 10 mM Mes-NaOH (pH 5.6) without active substance of the invention was used as a control group. In a certain amount of time, the leaves were collected and immediately frozen in liquid nitrogen to conduct WIPK activity measurement or RNA extraction for Northern blot analysis. WIPK activity measurement, RNA extraction and Northern blot analysis were performed following Seo et al. (1999) plant Cell 11, 289-291. WIPK activity was measured 15 minutes after the subject was allowed to absorb the isolated compound at the given concentration through the petiole. Only buffer was absorbed in a control group. As another control group (healthy leaf), leaves were cut from tobacco plant body to be immediately subjected to WIPK activity measurement. For proteinase inhibitor II (PI-II), basic PR-1, basic PR-2 genes and ACO, transcription product amounts of PI-II, basic PR-1, basic PR-2 genes and ACO-coding gene were measured after allowing the subject absorb the isolated compound at the given concentration through the petiole for a period of time. As a control group, only buffer was absorbed. The outline is as follows:
as §1

[9] = system: rice (Oryza sativa); test: Growth of periphery and height of stem after spraying; type: in vivo; conditions: sprayed, 300, 100 and 30 ng/ml, 24° C.
Description: (§3) In this Example, 15-day-old Arabidopsis (Arabidopsis thaliana), 1-month-old tobacco (Nicotiana tabacum cv. Samsun—NN), or 20-day-old rice (Oryza sativa) was used to provide plant bodies. The compound of this invention was dissolved in dimethyl sulfoxide (DMSO) and diluted with 10 mM Mes-NaOH (pH 5.6) to an adequate concentration (300, 100 and 30 ng/ml). 10 mM of Mes-NaOH containing the compound of this invention at the given concentration was sprayed to tobacco and rice plant bodies, followed by culture at 24° C. As a control group, 10 mM Mes-NaOH (pH 5.6) free of the compound of this invention was used. In a certain amount of time, the periphery and the height of stem above ground level were measured in rice, Arabidopsis and tobacco plant bodies.

[10] = system: Arabidopsis (Arabidopsis thaliana); test: as above; type: in vivo; conditions: sprayed, 300, 100 and 30 ng/ml, 24° C.
Description: as §3

[11] = system: tobacco (Nicotiana tabacum cv. Samsun—NN); test: as above; type: in vivo; conditions: sprayed, 300, 100 and 30 ng/ml, 24° C.
Description: as §3

[12] = system: basic PR-1 gene; test: Northern blot analysis of transcription products in treated tobacco leaves; type: cell-based, Nicotiana tabacum cv. Samsun NN; conditions: through the petiole
Description: as §2, with “follows: Nucleic acid hybridization reaction was performed on nylon membrane containing 20 μg total RNA with ^32P-radiolabeled cDNA of tobacco PI-II, basic PR-1, basic PR-2 genes and ACO-coding gene. After the membrane was washed it was used to expose to an X-ray film.” for “follows:”

[13] = system: ACO-coding gene; test: as above; type: cell-based, Nicotiana tabacum cv. Samsun NN; conditions: through the petiole
Description: as §2, with “follows: Nucleic acid hybridization reaction was performed on nylon membrane containing 20 μg total RNA with ^32P-radiolabeled cDNA of tobacco PI-II, basic PR-1, basic PR-2 genes and ACO-coding gene. After the membrane was washed it was used to expose to an X-ray film.” for “follows:”

[14] = system: proteinase inhibitor II gene; test: as above; type: cell-based, Nicotiana tabacum cv. Samsun NN
Description: as §2, with “follows: Nucleic acid hybridization reaction was performed on nylon membrane containing 20 μg total RNA with ^32P-radiolabeled cDNA of tobacco PI-II, basic PR-1, basic PR-2 genes and ACO-coding gene. After the membrane was washed it was used to expose to an X-ray film.” for “follows:”

[15] = system: basic PR-2 gene; test: as above; type: cell-based, Nicotiana tabacum cv. Samsun NN; conditions: through the petiole
Description: as §2, with “follows: Nucleic acid hybridization reaction was performed on nylon membrane containing 20 μg total RNA with ^32P-radiolabeled cDNA of tobacco PI-II, basic PR-1, basic PR-2 genes and ACO-coding gene. After the membrane was washed it was used to expose to an X-ray film.” for “follows:”

[16] = system: TMV; test: Defense of tobacco against TMV infection (necrotic lesion size, TMV coat protein); type: in vivo, tobacco mosaic virus
Description: To complete the infection, this healthy leaf was allowed to stand at room temperature for 30 minutes and washed with water removing the silicon carbide, after air drying, was put into a transparent plastic box spread with wet filter papers, followed by culture at 30° C. for 40 hours, then at 20° C. for 6 hours.
In this Example, the substance in this invention was administered to non-TMV-infected tobacco as a target. TMV stimulation was then given, under the same conditions as those in Example 1, to plants administered with the substance of this invention at the concentrations shown in FIG. 12 and tp control plant not administered to measure the size of necrotic lesions and the amount of TMV coat protein.

[17] = 1, 5 and 10 nM through the petiole
[18] = tobacco leaf disks, 30 minutes after treatment

CC(/C=C/[C@@H]1[C@@]2(C)CCCC(C)(C)[C@@H]2CC[C@@]1(C)O)=C\CO [WAF-1, (11E,13E)-labda-11,13-diene-8α,15-diol]
level of WIZZ transcript compared with leaf disks impregnated with water [1]: higher
level of ethylene released from leaves, relative to leaf treated with water ([2]; 100 nM): 1.2 times
level of ethylene released from leaves, relative to leaf treated with water ([2]; 1 μM): 1.4 times
amount of JA in treated leaves ([3]; 100 nM): at the same level as those treated with water
amount of JA in treated leaves ([3]; 1 AM (so in the source)): at the same level as those treated with water
growth in administered rice compared with rice not administered [4]: Growth was regulated
amount of SA in treated leaves ([5]; 100 nM): at the same level as those treated with water
amount of SA in treated leaves ([5]; 1 AM (so in the source)): at the same level as those treated with water
flowering after discontinuation of administration ([6]; only buffer sprayed): observation of flowering
flowering vs control group ([6]; sprayed, 300, 100 and 30 ng/ml, 24° C.): delay in flowering
time at which induction of SIPK activity was maximized [7, 17]: 15 min
induction of SIPK activity ([7]; each concentration of FIG. 4 (0.3, 1.5 and 3 ng/ml) through the petiole, 15 minutes): induction of SIPK activity at any concentration
concentration above which activation of SIPK is significant [7, 18]: > 10 pM
time at which WIPK activity was maximized [8, 17]: 15 min
time at which induction of WIPK activity was observed [8, 17]: 5 min
WIPK activity at 30 minutes ([8]; 1, 5 and 10 nM through the petiole, 30 minutes): retained maximum activity
induction of WIPK activity ([8]; each concentration of FIG. 2A given to leaf through the petiole, 15 minutes): induction of WIPK activity at any concentration
concentration above which activation of WIPK is significant [8, 18]: > 10 pM
growth of height above ground level vs control group [9]: growth of height above ground level was observed
growth of periphery and height of stem vs control group [10]: delay in growth of the periphery and height of stem
growth of periphery and height of stem vs control group [11]: delay in growth of the periphery and height of stem
accumulation of basic PR-1 [12]: accumulation
accumulation of ACO [13]: accumulation
amount of proteinase inhibitor II transcript compared with control group ([14]; 16 hours): significantly more
time at which accumulation of transcription products of proteinase inhibitor II gene was detected ([14]; examined in 2, 6 and 16 hours, concentration of FIG. 3, through the petiole): 16 h
accumulation of basic PR-2 [15]: accumulation

(11E,13E)-labda-11,13-diene-8α,15-diol [WAF-1]
TMV coat protein amount ([16]; tobacco leaf, 100 pM or 100 nM vs water): decrease
concentration above which the size of necrotic lesions decreased ([16]; tobacco, TMV stimulation, 10 pM to 100 nM, dose-dependent): higher than 100 pM
